Data reported in patent US12458643B2, “Antidepressant/anxiolytic drug in which PAC1 receptor antagonist is used” (KAGOSHIMA UNIVERSITY, priority 2020, dated 2025).

Test system: chronic social defeat stress mice
Assay: Chronic social defeat stress, sucrose preference test
Format: in vivo, mouse
Settings: for sustained effect on reduced sucrose preference: 8, 15, 29, 57 days after single i.p. dose (PA-915 30 mg/kg, ketamine 20 mg/kg), fluoxetine: after withdrawal of 14-day administration
Procedure: In a sucrose preference test, mice are exposed to a sucrose solution and regular water contained in bottles at the same time. Normal mice prefer to drink the sweet sucrose solution, whereas depressed mice drink the sucrose solution at a decreased ratio.
(§1) Chronic social defeat stress was applied at 10 min/day for 10 days (Days 1 to 10) to male C57BL/6N mice (8 to 12 weeks old) each reared in isolation for 10 days or longer. On Day 11, SPAT was conducted, and susceptible mice were selected. A vehicle (10% DMSO solution; dissolved in saline; n=11) or PA-8 (30 mg/kg; n=9) was intraperitoneally administered once daily (0.1 mL/10 g) for 7 consecutive days from day 12. The sucrose preference test was conducted (a sucrose preference ratio was studied for 17 hours) 30 minutes after the final administration on the 7th day (Day 18). Mice reared for 10 days in a home cage without chronic social defeat stress load were used as a control (n=10). The data was indicated by mean±standard error. *P<0.05 (One-way ANOVA followed by Tukey-Kramer test).
as §1, with “PA-9” for “PA-8”, “n=9 or 8)” for “n=9)”, “after administration on” for “after”, “first day (Day 12) and” for “final administration”, “18). […]” for “18).”
Chronic social defeat stress was applied at 10 min/day for 10 days (Days 1 to 10) to male C57BL/6N mice (8 to 12 weeks old) each reared in isolation for 10 days or longer. On Day 11, SPAT was conducted, and susceptible mice were selected. On the next day (Day 12), a vehicle (10% DMSO solution; dissolved in saline; n=11) or PA-915 (30 mg/kg; n=10) was intraperitoneally administered (0.1 mL/10 g) to the mice. The sucrose preference test was conducted (a sucrose preference ratio was studied for 17 hours) from 30 minutes after administration. Mice reared for 10 days in a home cage without chronic social defeat stress load were used as a control (n=15). The data was indicated by mean±standard error. *P<0.05 (One-way ANOVA followed by Tukey-Kramer test).
Chronic social defeat stress was applied at 10 min/day for 10 days (Days 1 to 10) to male C57BL/6N mice (8 to 12 weeks old) each reared in isolation for 10 days or longer. On Day 11, the social preference or avoidance test (SPAT) was conducted, and susceptible mice were selected. On the next day (Day 12), a vehicle (V: 10% DMSO solution; dissolved in saline; n=17), PA-915 (P: 30 mg/kg; n=15), ketamine (K: 20 mg/kg; n=15) or fluoxetine (F: 20 mg/kg; n=16, n=15 only on Day 69) was intraperitoneally administered (0.1 mL/10 g) to the mice. The sucrose preference test was conducted 24 hours later (Day 13), 8 days later (Day 20), 15 days later (Day 27), 29 days later (Day 41), and 57 days later (Day 69) (a sucrose preference ratio was studied on each day from 5:00 p.m. of the previous day to 10:00 a.m. of the day). However, for the fluoxetine administration group, consecutive administration (F: 20 mg/kg, intraperitoneal administration (0.1 mL/10 g)) was performed for 14 days from Day 12 to Day 26. Mice reared for 10 days in a home cage without chronic social defeat stress load were used as a control (n=22). The data was indicated by mean±standard error. **P<0.01; *P<0.05 (One-way ANOVA followed by Tukey-Kramer test). […]

[1] = chronic social defeat stress, 30 mg/kg i.p. once daily for 7 days, test 30 min after final administration (Day 18)
[2] = Example 19, single i.p. dose (PA-915 30 mg/kg, ketamine 20 mg/kg, fluoxetine 20 mg/kg), 24 hours later (Day 13)

Compound | effect on reduced sucrose preference [1] | sustained effect on reduced sucrose preference (Example 19) | effect on reduced sucrose preference [2] | effect on reduced sucrose preference (chronic social defeat stress, 30 mg/kg i.p. single dose (Day 12), test from 30 min after administration, 17 hours) | effect on reduced sucrose preference (Example 19, fluoxetine 20 mg/kg i.p. 14-day consecutive administration (Day 12 to Day 26))
C=CCOc1ccc(C2CC(=O)Nc3nc(N)[nH]c(=O)c32)cc1OC (centres unmarked) [PA-8] | improving effect |  |  |  | 
CNC1(c2ccccc2Cl)CCCCC1=O (centres unmarked) [ketamine] |  | maintained its effectiveness 8, 15, 29, and 57 days later | improved reduced sucrose preference in a fast-acting manner |  | 
O=C(NCCc1c[nH]cn1)C1CC(=O)N(c2n[nH]c3ccccc23)C1 (centres unmarked) [PA-9] | its effect was also sustained after repeated administration for 7 days |  |  | improved sucrose preference even by single-dose administration | 
CNCCC(Oc1ccc(C(F)(F)F)cc1)c1ccccc1 (centres unmarked) [fluoxetine] |  | its effectiveness was not maintained after drug withdrawal | did not improve sucrose preference |  | improved reduced sucrose preference
